The values below come from patent US9533978B2 (AstraZeneca AB, priority 2009, dated 2017).

Molecules are shown by their SMILES. pEC50: −log10 of the molar value.

The experiment addresses T1, Recombinant human TLR7 (Homo sapiens, UniProt Q9NYK1).
T1 construct: expressed in transfected cells; host or cells: HEK293 cell line stably expressing the pNiFty2-SEAP reporter plasmid; TLR7 in vector pUNO, blasticidin selection
T1 sequence (Q9NYK1 27-1049): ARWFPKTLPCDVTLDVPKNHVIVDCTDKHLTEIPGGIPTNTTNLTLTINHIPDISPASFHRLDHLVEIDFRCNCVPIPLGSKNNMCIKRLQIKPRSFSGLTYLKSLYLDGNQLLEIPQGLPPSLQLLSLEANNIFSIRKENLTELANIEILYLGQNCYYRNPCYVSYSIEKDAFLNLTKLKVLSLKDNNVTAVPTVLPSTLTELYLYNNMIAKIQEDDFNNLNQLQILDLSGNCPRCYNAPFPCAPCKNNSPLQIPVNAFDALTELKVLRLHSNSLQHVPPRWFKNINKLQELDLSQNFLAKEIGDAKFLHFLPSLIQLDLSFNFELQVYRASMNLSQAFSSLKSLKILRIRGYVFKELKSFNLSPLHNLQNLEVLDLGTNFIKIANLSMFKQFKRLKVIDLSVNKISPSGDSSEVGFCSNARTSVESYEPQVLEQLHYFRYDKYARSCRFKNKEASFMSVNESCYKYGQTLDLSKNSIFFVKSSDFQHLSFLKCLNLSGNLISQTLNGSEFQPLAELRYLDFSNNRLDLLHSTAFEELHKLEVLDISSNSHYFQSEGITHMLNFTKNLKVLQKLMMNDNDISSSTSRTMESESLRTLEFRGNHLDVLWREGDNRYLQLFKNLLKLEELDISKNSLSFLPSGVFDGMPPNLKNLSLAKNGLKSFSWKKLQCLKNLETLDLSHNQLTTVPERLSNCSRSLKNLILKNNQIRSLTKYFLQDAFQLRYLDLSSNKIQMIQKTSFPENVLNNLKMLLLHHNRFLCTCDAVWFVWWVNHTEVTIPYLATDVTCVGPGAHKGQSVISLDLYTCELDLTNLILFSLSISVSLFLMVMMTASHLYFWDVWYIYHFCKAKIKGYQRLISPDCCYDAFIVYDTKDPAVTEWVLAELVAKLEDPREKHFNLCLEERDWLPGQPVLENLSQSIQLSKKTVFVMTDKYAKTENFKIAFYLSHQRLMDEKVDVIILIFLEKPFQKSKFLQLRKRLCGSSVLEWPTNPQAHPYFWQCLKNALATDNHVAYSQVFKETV
Put plainly: Human TLR7 assay (HEK293 SEAP reporter). In kind it is cell-based. The following applies: degree of TLR7 activation; SEAP induction in HEK293 cells stably expressing recombinant human TLR7 and pNiFty2-SEAP reporter, overnight incubation at 37° C., 0.1% (v/v) DMSO. As for the experimental part: The ability of compounds to activate TLR7 in vitro was assessed using the human TLR7 assay described below.
Recombinant human TLR7 was stably expressed in a HEK293 cell line already stably expressing the pNiFty2-SEAP reporter plasmid; integration of the reporter gene was maintained by selection with the antibiotic zeocin. The most common variant sequence of human TLR7 (represented by the EMBL sequence AF240467) was cloned into the mammalian cell expression vector pUNO and transfected into this reporter cell-line. Transfectants with stable expression were selected using the antibiotic blasticidin. In this reporter cell-line, expression of secreted alkaline phosphatase (SEAP) is controlled by an NFkB/ELAM-1 composite promoter comprising five NFkB sites combined with the proximal ELAM-1 promoter. TLR signaling leads to the translocation of NFkB and activation of the promoter results in expression of the SEAP gene. TLR7-specific activation was assessed by determining the level of SEAP produced following overnight incubation of the cells at 37° C. with the standard compound in the presence of 0.1% (v/v) dimethylsulfoxide (DMSO). Concentration dependent induction of SEAP production by compounds was expressed as the concentration of compound which produced half of the maximal level of SEAP induction for that compound (EC50).
One may read the pEC50 as −log10 of the EC50, conventionally taken in molar units. On to `CCCCCNc1nc(N)nc(C)c1Cc1ccc(OC)cc1` [Example 1, 5-(4-Methoxybenzyl)-6-methyl-N^4-pentylpyrimidine-2,4-diamine], for which the pEC50 is 5.70.

In the case of `CCCCCNc1nc(N)nc(C)c1Cc1cc(C(=O)OC)ccc1OC` [Example 16, Methyl 3-((2-amino-4-methyl-6-(pentylamino)pyrimidin-5-yl)methyl)-4-methoxybenzoate], the pEC50 was 7.30.

Take `CCCCCNc1nc(N)nc(C)c1Cc1ccccc1OCC` [Example 21, 5-(2-Ethoxybenzyl)-6-methyl-N^4-pentylpyrimidine-2,4-diamine]: the pEC50 was 6.50.

On to `CCCCCNc1nc(N)nc(C)c1Cc1cccc(OC)c1` [Example 23, 5-(3-Methoxybenzyl)-6-methyl-N4-pentylpyrimidine-2,4-diamine], for which the pEC50 was 5.60.

Regarding `CCCCCNc1nc(N)nc(C)c1Cc1cccc(O)c1` [Example 24, 3-((2-Amino-4-methyl-6-(pentylamino)pyrimidin-5-yl)methyl)phenol], the pEC50 was 5.30.

On to `COC(=O)Cc1cccc([C@@H](CCO)Nc2nc(N)nc(C)c2Cc2ccc(OCCCN(C)C)cc2OC)c1` [Example 35, (R)-Methyl 2-(3-(1-(2-amino-5-(4-(3-(dimethylamino)propoxy)-2-methoxybenzyl)-6-methylpyrimidin-4-ylamino)-3-hydroxypropyl)phenyl)acetate], for which the pEC50 is 6.50.

With `CCCCCNc1nc(N)nc(C)c1Cc1ccc(OCCCN2CCN(C)CC2)cc1OC` [Example 38, 5-(2-Methoxy-4-(3-(4-methylpiperazin-1-yl)propoxy)benzyl)-6-methyl-N^4-pentylpyrimidine-2,4-diamine], the negative-log EC50 (pEC50) was 8.20.

For `CCCC[C@@H](CCO)Nc1nc(N)nc(C)c1Cc1ccc(C(=O)OC)cc1OC` [Example 14, (S)-Methyl 4-((2-amino-4-(1-hydroxyheptan-3-ylamino)-6-methyl-pyrimidin-5-yl)methyl)-3-methoxybenzoate], the pEC50 was 8.00.

`CCCCCNc1nc(N)nc(C)c1Cc1ccc(OCCCN2CCN(C)CC2)cc1` [Example 10, 6-Methyl-5-(4-(3-(4-methylpiperazin-1-yl)propoxy)benzyl)-V-pentylpyrimidine-2,4-diamine]: the pEC50 was 7.10.
